Patent US20230085307A1, “PYRIDAZINONE COMPOUND AND HERBICIDE” (NISSAN CHEMICAL CORPORATION, priority 2019, published 2023)

What was measured:
[1] = tested on: late watergrass; experiment: Test Example 1: herbicidal activity, application before weed generation under submerged conditions (Table 16, symbol A); type: in vivo, late watergrass (Echinochloa oryzicola)
How it was run: (§1)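 Emulsion formulation, water-diluted to set dose, was put onto the flooded surface (4 cm depth, alluvial soil) the same day weeds were sown and 2.5-leaf rice transplanted. After 3 weeks at 25-30 °C under glass, each species was rated 0 (≤5% kill) to 5 (≥90% kill).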

[2] = tested on: wild oat; experiment: Test Example 5: herbicidal effect by foliage application, plastic box (Table 20, symbol I); type: in vivo, wild oat (Avena fatua)
How it was run: (§2)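 Foliar spray test: emulsion formulation diluted in water to a set application rate, sprayed onto 14-day-old plants raised in diluvial soil at 25° C to 30° C under glass. Both herbicidal effect and crop effect rated visually three weeks later.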

[3] = tested on: barnyard grass; experiment: Test Example 5: herbicidal effect by foliage application, plastic box (Table 20, symbol H); type: in vivo, barnyard grass (Echinochloa crus-galli)
How it was run: as §2

[4] = tested on: wild oat; experiment: Test Example 4: herbicidal effect by soil treatment (Table 19, symbol I); type: in vivo, wild oat (Avena fatua)
How it was run: (§3)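 Herbicidal effect was rated 3 weeks after treatment, using the scoring criteria of an earlier test. The compound, formulated as an emulsion and diluted in water to a set herbicide amount, had been sprayed uniformly on soil over freshly sown seeds. Growth took place in a greenhouse at 25° C. to 30° C.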

[5] = tested on: velvetleaf; experiment: Test Example 4: herbicidal effect by soil treatment (Table 19, symbol M); type: in vivo, velvetleaf (Abutilon theophrasti)
How it was run: as §3

[6] = tested on: barnyard grass; experiment: Test Example 4: herbicidal effect by soil treatment (Table 19, symbol H); type: in vivo, barnyard grass (Echinochloa crus-galli)
How it was run: as §3

[7] = tested on: redroot pigweed; experiment: Test Example 4: herbicidal effect by soil treatment (Table 19, symbol N); type: in vivo, redroot pigweed (Amaranthus retroflexus)
How it was run: as §3

[8] = tested on: southern crabgrass; experiment: Test Example 5: herbicidal effect by foliage application, plastic box (Table 20, symbol F); type: in vivo, southern crabgrass (Digitaria ciliaris)
How it was run: as §2

[9] = tested on: oval-leafed pondweed; experiment: Test Example 1: herbicidal activity, application before weed generation under submerged conditions (Table 16, symbol C); type: in vivo, oval-leafed pondweed (Monochoria vaginalis)
How it was run: as §1

[10] = tested on: Italian ryegrass; experiment: Test Example 5: herbicidal effect by foliage application, plastic box (Table 20, symbol K); type: in vivo, Italian ryegrass (Lolium multiflorum)
How it was run: as §2

[11] = tested on: chickweed; experiment: Test Example 4: herbicidal effect by soil treatment (Table 19, symbol P); type: in vivo, common chickweed (Stellaria media)
How it was run: as §3

[12] = tested on: southern crabgrass; experiment: Test Example 4: herbicidal effect by soil treatment (Table 19, symbol F); type: in vivo, southern crabgrass (Digitaria ciliaris)
How it was run: as §3

[13] = tested on: Japanese bulrush; experiment: Test Example 1: herbicidal activity, application before weed generation under submerged conditions (Table 16, symbol B); type: in vivo, Japanese bulrush (Schoenoplectus juncoides)
How it was run: as §1

[14] = tested on: lambsquarters; experiment: Test Example 4: herbicidal effect by soil treatment (Table 19, symbol O); type: in vivo, lambsquarters (Chenopodium album)
How it was run: as §3

[15] = tested on: Italian ryegrass; experiment: Test Example 4: herbicidal effect by soil treatment (Table 19, symbol K); type: in vivo, Italian ryegrass (Lolium multiflorum)
How it was run: as §3

[16] = tested on: persian speedwell; experiment: Test Example 4: herbicidal effect by soil treatment (Table 19, symbol R); type: in vivo, Persian speedwell (Veronica persica)
How it was run: as §3

[17] = tested on: redroot pigweed; experiment: Test Example 5: herbicidal effect by foliage application, plastic box (Table 20, symbol N); type: in vivo, redroot pigweed (Amaranthus retroflexus)
How it was run: as §2

[18] = tested on: blackgrass; experiment: Test Example 5: herbicidal effect by foliage application, plastic box (Table 20, symbol J); type: in vivo, blackgrass (Alopecurus myosuroides)
How it was run: as §2

[19] = tested on: lambsquarters; experiment: Test Example 5: herbicidal effect by foliage application, plastic box (Table 20, symbol O); type: in vivo, lambsquarters (Chenopodium album)
How it was run: as §2

[20] = tested on: chickweed; experiment: Test Example 5: herbicidal effect by foliage application, plastic box (Table 20, symbol P); type: in vivo, common chickweed (Stellaria media)
How it was run: as §2

[21] = tested on: velvetleaf; experiment: Test Example 5: herbicidal effect by foliage application, plastic box (Table 20, symbol M); type: in vivo, velvetleaf (Abutilon theophrasti)
How it was run: as §2

[22] = tested on: Chinese sprangletop; experiment: Test Example 3: herbicidal effect by foliage application, Wagner pot (Table 18, symbol D); type: in vivo, chinese sprangletop (Leptochloa chinensis); settings: 320 g/ha
How it was run: (§4)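 Plants were sown in alluvial soil held under 0.1–0.5 cm standing water and grown 14 days in a greenhouse at 25–30 °C. An emulsifiable formulation, water-diluted to the set dose, was then sprayed onto the foliage, and effects were scored three weeks later using previously defined criteria.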

[23] = tested on: windgrass; experiment: Test Example 4: herbicidal effect by soil treatment (Table 19, symbol L); type: in vivo, windgrass (Apera spica-venti)
How it was run: as §3

[24] = tested on: green foxtail; experiment: Test Example 4: herbicidal effect by soil treatment (Table 19, symbol G); type: in vivo, green foxtail (Setaria viridis)
How it was run: as §3

[25] = tested on: green foxtail; experiment: Test Example 5: herbicidal effect by foliage application, plastic box (Table 20, symbol G); type: in vivo, green foxtail (Setaria viridis)
How it was run: as §2

[26] = tested on: windgrass; experiment: Test Example 5: herbicidal effect by foliage application, plastic box (Table 20, symbol L); type: in vivo, windgrass (Apera spica-venti); settings: foliage application, AAH 320 g/ha, three weeks after application
How it was run: as §2

[27] = tested on: barnyard grass; experiment: Test Example 3: herbicidal effect by foliage application, Wagner pot (Table 18, symbol H); type: in vivo, barnyard grass (Echinochloa crus-galli); settings: 320 g/ha
How it was run: as §4

[28] = tested on: persian speedwell; experiment: Test Example 5: herbicidal effect by foliage application, plastic box (Table 20, symbol R); type: in vivo, Persian speedwell (Veronica persica)
How it was run: as §2

[29] = tested on: blackgrass; experiment: Test Example 4: herbicidal effect by soil treatment (Table 19, symbol J); type: in vivo, blackgrass (Alopecurus myosuroides)
How it was run: as §3

[30] = tested on: rice flat sedge; experiment: Test Example 3: herbicidal effect by foliage application, Wagner pot (Table 18, symbol E); type: in vivo, rice flat sedge (Cyperus iria); settings: 320 g/ha
How it was run: as §4

[31] = foliage application, AAH 320 g/ha, three weeks after application
[32] = amount of applied herbicide 320 g/ha
[33] = 320 g/ha, foliage application after 14-day growth, evaluated three weeks after application

Cc1nn(C)c(=O)c(-c2c(-c3ccc(OS(C)(=O)=O)cc3)sc3ccccc23)c1O [1-146]
Herbicidal effect on A: late watergrass (grade 0-5) ([1]; 320 g/ha applied herbicide): 3 (Herbicidal rate of 40% or more and less than 70%) | I: wild oat, herbicidal effect [2, 31]: 0 (Herbicidal rate of 5% or less (almost no effect)) | H: barnyard grass, herbicidal effect [3, 31]: 5 (Herbicidal rate of 90% or more (almost completely withered)) | I: wild oat, herbicidal effect rating ([4]; AAH 320 g/ha): 0 (Herbicidal rate of 5% or less (almost no effect)) | M: velvetleaf, herbicidal effect rating ([5]; AAH 320 g/ha): 5 (Herbicidal rate of 90% or more (almost completely withered)) | H: barnyard grass, herbicidal effect rating ([6]; AAH 320 g/ha): 5 (Herbicidal rate of 90% or more (almost completely withered)) | N: redroot pigweed, herbicidal effect rating ([7]; AAH 320 g/ha): 5 (Herbicidal rate of 90% or more (almost completely withered)) | F: southern crabgrass, herbicidal effect [8, 31]: 4 (Herbicidal rate of 70% or more and less than 90%) | Herbicidal effect on C: oval-leafed pondweed (grade 0-5) ([9]; 320 g/ha applied herbicide): 0 (Herbicidal rate of 5% or less (almost no effect)) | K: Italian ryegrass, herbicidal effect [10, 31]: 5 (Herbicidal rate of 90% or more (almost completely withered)) | P: chickweed, herbicidal effect rating ([11]; AAH 320 g/ha): 4 (Herbicidal rate of 70% or more and less than 90%) | F: southern crabgrass, herbicidal effect rating ([12]; AAH 320 g/ha): 4 (Herbicidal rate of 70% or more and less than 90%) | Herbicidal effect on B: Japanese bulrush (grade 0-5) ([13]; 320 g/ha applied herbicide): 0 (Herbicidal rate of 5% or less (almost no effect)) | O: lambsquarters, herbicidal effect rating ([14]; AAH 320 g/ha): 5 (Herbicidal rate of 90% or more (almost completely withered)) | K: Italian ryegrass, herbicidal effect rating ([15]; AAH 320 g/ha): 4 (Herbicidal rate of 70% or more and less than 90%) | R: persian speedwell, herbicidal effect rating ([16]; AAH 320 g/ha): 5 (Herbicidal rate of 90% or more (almost completely withered)) | N: redroot pigweed, herbicidal effect [17, 31]: 3 (Herbicidal rate of 40% or more and less than 70%) | J: blackgrass, herbicidal effect [18, 31]: 1 (Herbicidal rate of 5% or more and less than 20%) | O: lambsquarters, herbicidal effect [19, 31]: 3 (Herbicidal rate of 40% or more and less than 70%) | P: chickweed, herbicidal effect [20, 31]: 5 (Herbicidal rate of 90% or more (almost completely withered)) | M: velvetleaf, herbicidal effect [21, 31]: 4 (Herbicidal rate of 70% or more and less than 90%) | herbicidal effect on D (Chinese sprangletop), rating 0-5 [22]: 2 (Herbicidal rate of 20% or more and less than 40%) | L: windgrass, herbicidal effect rating ([23]; AAH 320 g/ha): 0 (Herbicidal rate of 5% or less (almost no effect)) | G: green foxtail, herbicidal effect rating ([24]; AAH 320 g/ha): 5 (Herbicidal rate of 90% or more (almost completely withered)) | G: green foxtail, herbicidal effect [25, 31]: 5 (Herbicidal rate of 90% or more (almost completely withered)) | L: windgrass, herbicidal effect [26]: 0 (Herbicidal rate of 5% or less (almost no effect)) | herbicidal effect on H (barnyard grass), rating 0-5 [27]: 5 (Herbicidal rate of 90% or more (almost completely withered)) | R: persian speedwell, herbicidal effect [28, 31]: 5 (Herbicidal rate of 90% or more (almost completely withered)) | J: blackgrass, herbicidal effect rating ([29]; AAH 320 g/ha): 0 (Herbicidal rate of 5% or less (almost no effect))

COc1ccc(-c2sc3c(Cl)cccc3c2-c2c(O)c(C)nn(C)c2=O)cc1 [4-023]
Herbicidal effect, A: late watergrass [1, 32]: 3 (Herbicidal rate of 40% or more and less than 70%) | herbicidal effect on I: wild oat (evaluation grade 0-5) [2, 33]: 0 (Herbicidal rate of 5% or less (almost no effect)) | herbicidal effect on H: barnyard grass (evaluation grade 0-5) [3, 33]: 2 (Herbicidal rate of 20% or more and less than 40%) | Herbicidal effect by soil treatment, I: wild oat [4, 32]: 0 (Herbicidal rate of 5% or less (almost no effect)) | Herbicidal effect by soil treatment, M: velvetleaf [5, 32]: 0 (Herbicidal rate of 5% or less (almost no effect)) | Herbicidal effect by soil treatment, H: barnyard grass [6, 32]: 0 (Herbicidal rate of 5% or less (almost no effect)) | Herbicidal effect by soil treatment, N: redroot pigweed [7, 32]: 2 (Herbicidal rate of 20% or more and less than 40%) | herbicidal effect on F: southern crabgrass (evaluation grade 0-5) [8, 33]: 0 (Herbicidal rate of 5% or less (almost no effect)) | Herbicidal effect, C: oval-leafed pondweed [9, 32]: 0 (Herbicidal rate of 5% or less (almost no effect)) | herbicidal effect on K: Italian ryegrass (evaluation grade 0-5) [10, 33]: 5 (Herbicidal rate of 90% or more (almost completely withered)) | Herbicidal effect by soil treatment, P: chickweed [11, 32]: 5 (Herbicidal rate of 90% or more (almost completely withered)) | Herbicidal effect by soil treatment, F: southern crabgrass [12, 32]: 0 (Herbicidal rate of 5% or less (almost no effect)) | Herbicidal effect, B: Japanese bulrush [13, 32]: 0 (Herbicidal rate of 5% or less (almost no effect)) | Herbicidal effect by soil treatment, O: lambsquarters [14, 32]: 3 (Herbicidal rate of 40% or more and less than 70%) | Herbicidal effect by soil treatment, K: Italian ryegrass [15, 32]: 5 (Herbicidal rate of 90% or more (almost completely withered)) | Herbicidal effect by soil treatment, R: persian speedwell [16, 32]: 0 (Herbicidal rate of 5% or less (almost no effect)) | herbicidal effect on N: redroot pigweed (evaluation grade 0-5) [17, 33]: 1 (Herbicidal rate of 5% or more and less than 20%) | herbicidal effect on J: blackgrass (evaluation grade 0-5) [18, 33]: 0 (Herbicidal rate of 5% or less (almost no effect)) | herbicidal effect on O: lambsquarters (evaluation grade 0-5) [19, 33]: 2 (Herbicidal rate of 20% or more and less than 40%) | herbicidal effect on P: chickweed (evaluation grade 0-5) [20, 33]: 5 (Herbicidal rate of 90% or more (almost completely withered)) | herbicidal effect on M: velvetleaf (evaluation grade 0-5) [21, 33]: 3 (Herbicidal rate of 40% or more and less than 70%) | herbicidal effect on Chinese sprangletop (D) [22]: 3 (Herbicidal rate of 40% or more and less than 70%) | Herbicidal effect by soil treatment, L: windgrass [23, 32]: 0 (Herbicidal rate of 5% or less (almost no effect)) | Herbicidal effect by soil treatment, G: green foxtail [24, 32]: 0 (Herbicidal rate of 5% or less (almost no effect)) | herbicidal effect on G: green foxtail (evaluation grade 0-5) [25, 33]: 1 (Herbicidal rate of 5% or more and less than 20%) | herbicidal effect on rice flat sedge (E) [30]: 5 (Herbicidal rate of 90% or more (almost completely withered)) | herbicidal effect on barnyard grass (H) [27]: 5 (Herbicidal rate of 90% or more (almost completely withered)) | herbicidal effect on R: persian speedwell (evaluation grade 0-5) [28, 33]: 0 (Herbicidal rate of 5% or less (almost no effect)) | Herbicidal effect by soil treatment, J: blackgrass [29, 32]: 0 (Herbicidal rate of 5% or less (almost no effect))
